Values after ≈ are worked out from the molar mass of the structure shown. Values joined by “and” are separate entries in the source; they are usually repeats but may differ in a detail not shown here. Equal entries are not always repeated.
Tests used:
Assay in all cases: ≥ marks a high value that may be exact or a test limit, other limits are often not marked, values filed in µg/mL are converted to µM
[1] = tested on: Candida parapsilosis CGMCC 2.3989
[2] = tested on: Candida tropicalis CGMCC 2.1975
Escherichia coli 078 = tested on: Escherichia coli 078
Escherichia coli K88 = tested on: Escherichia coli K88
Escherichia coli K99 = tested on: Escherichia coli K99
Escherichia coli UB1005 = tested on: Escherichia coli UB1005
[3] = tested on: Pseudomonas aeruginosa ATCC 27853
[4] = tested on: Salmonella enterica subsp. enterica serovar Pullorum ATCC 7913
[5] = tested on: Salmonella enterica subsp. enterica serovar Typhimurium ATCC 14028
[6] = tested on: Salmonella enterica subsp. enterica serovar Typhimurium C77-31
[7] = tested on: Staphylococcus aureus ATCC 25923
[8] = tested on: Staphylococcus aureus ATCC 43300
[9] = tested on: Staphylococcus epidermidis ATCC 12228
[10] = tested on: Pseudomonas aeruginosa PAK
Staphylococcus aureus = tested on: Staphylococcus aureus
[11] = tested on: Streptococcus gordonii Challis DL1
[12] = tested on: Streptococcus mitis ATCC 903
[13] = tested on: Streptococcus mutans UA159
[14] = tested on: Streptococcus sanguinis NY101
[15] = tested on: Bacillus subtilis CMCC 63501
[16] = tested on: Salmonella typhimurium ATCC 7731
[17] = tested on: Staphylococcus aureus ATCC 29213

## CC[C@H](C)[C@H](NC(=O)[C@H](CCCN=C(N)N)NC(=O)[C@H](C)NC(=O)[C@H](C)N)C(=O)N[C@H](C(=O)N[C@@H](CC(C)C)C(=O)N[C@@H](CCCN=C(N)N)C(=O)N[C@@H](CC(C)C)C(=O)N[C@@H](CCCN=C(N)N)C(=O)N[C@@H](Cc1ccccc1)C(=O)N[C@@H](CCCN=C(N)N)C(N)=O)[C@@H](C)CC [AARIILRLRFR]
[1]
  MIC: 4 µM (≈ 5.54 µg/mL)
[2]
  MIC: 4 µM (≈ 5.54 µg/mL)
Escherichia coli 078
  MIC: 4 µM (≈ 5.54 µg/mL)
Escherichia coli K88
  MIC: 4 µM (≈ 5.54 µg/mL)
Escherichia coli K99
  MIC: 2 µM (≈ 2.77 µg/mL)
Escherichia coli UB1005
  MIC: 4 µM (≈ 5.54 µg/mL)
[3]
  MIC: 8 µM (≈ 11.1 µg/mL)
[4]
  MIC: 4 µM (≈ 5.54 µg/mL)
[5]
  MIC: 4 µM (≈ 5.54 µg/mL)
[6]
  MIC: 4 µM (≈ 5.54 µg/mL)
[7]
  MIC: 2 µM (≈ 2.77 µg/mL)
[8]
  MIC: 2 µM (≈ 2.77 µg/mL)
[9]
  MIC: 2 µM (≈ 2.77 µg/mL)

## CC[C@H](C)[C@H](NC(=O)[C@H](Cc1ccccc1)NC(=O)[C@H](Cc1cnc[nH]1)NC(=O)[C@H](CCCCN)NC(=O)[C@@H](NC(=O)[C@@H](N)Cc1ccccc1)[C@@H](C)CC)C(=O)N[C@@H](Cc1cnc[nH]1)C(=O)N[C@@H](CCCN=C(N)N)C(=O)N[C@@H](Cc1ccccc1)C(=O)NCC(=O)NCC(=O)NCC(=O)N[C@@H](CCCN=C(N)N)C(=O)N[C@@H](Cc1c[nH]c2ccccc12)C(=O)N[C@@H](CCCN=C(N)N)C(=O)N[C@@H](Cc1c[nH]c2ccccc12)C(=O)N[C@@H](CCCN=C(N)N)C(=O)N[C@@H](Cc1c[nH]c2ccccc12)C(=O)N[C@@H](Cc1ccccc1)C(N)=O [FIKHFIHRFGGGRWRWRWF]
[10]
  MIC: 24.1 µM (≈ 62.5 µg/mL)
Staphylococcus aureus
  MIC: 12.4 µM (≈ 32 µg/mL)
[11]
  MIC: 12.4 µM (≈ 32 µg/mL)
[12]
  MIC: 12.4 µM (≈ 32 µg/mL)
[13]
  MIC: 3.09 µM (≈ 8 µg/mL)
[14]
  MIC: 12.4 µM (≈ 32 µg/mL)

## CC[C@H](C)[C@H](NC(=O)[C@H](Cc1ccccc1)NC(=O)[C@H](Cc1cnc[nH]1)NC(=O)[C@H](CCCCN)NC(=O)[C@@H](NC(=O)[C@@H](N)Cc1ccccc1)[C@@H](C)CC)C(=O)N[C@@H](Cc1cnc[nH]1)C(=O)N[C@@H](CCCN=C(N)N)C(=O)N[C@@H](Cc1ccccc1)C(=O)N[C@@H](CO)C(=O)NCC(=O)NCC(=O)N[C@@H](CC(C)C)C(=O)N[C@@H](CCC(N)=O)C(=O)N[C@@H](CC(C)C)C(=O)N[C@@H](CC(C)C)C(=O)N[C@@H](CCCCN)C(=O)N[C@@H](CCC(N)=O)C(=O)N[C@@H](CC(C)C)C(=O)N[C@@H](CC(C)C)C(=O)N[C@@H](CCCCN)C(=O)N[C@@H](CC(C)C)C(=O)N[C@@H](CC(C)C)C(=O)N[C@@H](CCCCN)C(=O)N[C@@H](CCC(N)=O)C(=O)N[C@@H](Cc1ccccc1)C(N)=O [FIKHFIHRFSGGLQLLKQLLKLLKQF]
[10]
  MIC: 10.1 µM (≈ 32 µg/mL)
Staphylococcus aureus
  MIC: 10.1 µM (≈ 32 µg/mL)
[11]
  MIC: 2.54 µM (≈ 8 µg/mL)
[12]
  MIC: 19.8 µM (≈ 62.5 µg/mL)
[13]
  MIC: 5.07 µM (≈ 16 µg/mL)
[14]
  MIC: 10.1 µM (≈ 32 µg/mL)

## CC[C@H](C)[C@H](NC(=O)[C@H](C)NC(=O)[C@H](CCCCN)NC(=O)[C@H](Cc1ccc(O)cc1)NC(=O)[C@H](CC(C)C)NC(=O)[C@H](C)NC(=O)[C@@H](NC(=O)[C@@H](NC(=O)[C@H](CC(N)=O)NC(=O)[C@@H](NC(=O)[C@H](C)NC(=O)[C@@H](NC(=O)[C@@H]1CCCN1C(=O)[C@@H](NC(=O)[C@H](CC(C)C)NC(=O)[C@@H]1CCCN1C(=O)[C@H](Cc1c[nH]c2ccccc12)NC(=O)[C@H](Cc1ccccc1)NC(=O)[C@H](CCCN=C(N)N)NC(=O)[C@@H](N)CCCCN)C(C)C)C(C)C)[C@@H](C)CC)[C@@H](C)O)C(C)C)C(=O)N[C@@H](CCCN=C(N)N)C(=O)N[C@@H](CCCN=C(N)N)C(=O)N[C@@H](CCCCN)C(N)=O [KRFWPLVPVAINTVALYKAIRRK]
[15]
  MIC: 4 µM (≈ 11 µg/mL)
Escherichia coli UB1005
  MIC: 4 µM (≈ 11 µg/mL)
[3]
  MIC: 4 µM and > 2 µM
[5]
  MIC: 4 µM (≈ 11 µg/mL)
[16]
  MIC: 2 µM (≈ 5.48 µg/mL)
[17]
  MIC: 4 µM (≈ 11 µg/mL)
[9]
  MIC: 4 µM (≈ 11 µg/mL)

Source: DBAASP
